Results on two molecules are retold here after paper PMC11672137, “High-Affinity Lectin Ligands Enable the Detection of Pathogenic Pseudomonas aeruginosa Biofilms: Implications for Diagnostics and Therapy” (JACS Au, 2024).

In experiment [1] the target is T1, LecA (Pseudomonas aeruginosa, UniProt Q05097).
T1 construct: made in house
Description: Isothermal titration calorimetry with LecA. The experiment is classed as binding. As to conditions: for -TΔS (ITC, average) / N (ITC stoichiometry, average) / ΔG (ITC, average) / ΔH (ITC, average): LecA, average ± s.d. How it is done:
(§1) Next, binding of the optimized divalent ligand 17 and its synthetic precursor 16 to LecA was evaluated by fluorescence polarization-based (FP) assays,[47] SPR, and ITC. […] Therefore, fluorescent ligand 17 was analyzed in a direct binding experiment by FP. […] The dissociation constants for 16 were 47.2 ± 11.3 nM (ITC) and 47.8 ± 44.1 nM (steady-state SPR), while for 17, the values were 64.1 ± 31.1 nM and 79.3 ± 24.9 nM (steady-state SPR). For the SPR experiments, Kd was also determined by single-cycle kinetic analysis resulting in approximately five times higher affinity, but the data have limited reliability due to suboptimal fit for the kinetic curves (Figures S13B and S14).[58]−[60]
Figure 3 Evaluation of the optimized fluorescent ligand 17 and its synthetic precursor 16 in LecA binding using thermodynamic analysis by ITC. Data for one representative experiment are depicted. Averages and standard deviation from at least three independent experiments (*two independent experiments). TEXT PRINTED IN THE PICTURE: 16: ΔG [kJ/mol]: -41.9 ± 0.6*; ΔH [kJ/mol]: -89.3 ± 0.8*; -TΔS [kJ/mol]: 47.4 ± 1.4*; N: 0.47 ± 0.03*; Kd [nM]: 47.2 ± 11.3* | 17: ΔG [kJ/mol]: -41.4 ± 1.2; ΔH [kJ/mol]: -83.5 ± 3.2; -TΔS [kJ/mol]: 42.1 ± 4.3; N: 0.50 ± 0.03; Kd [nM]: 64.1 ± 31.1 […]
Isothermal titration calorimetry (ITC) was performed on an iTC200 (Malvern Panalytical) and the data were analyzed using Microcal Origin software (Malvern Panalytical).
LecA (50 µM) in the cell was titrated with ligand (100 µM or 200 µM) in TBS/Ca2+ buffer supplemented with 5% DMSO at 25 °C. Steep titration slopes achieved with the divalent ligands were the result of high amount of protein present and the high binding affinity of the ligand (high ‘value of c’).22 However, LecA protein concentration lower than 50 µM resulted in insufficient signal as a consequence of the low heat released upon binding.
Figure S15: ITC measurements of divalent alkyne ligand 16 with LecA performed in TBS/Ca2+ buffer with 5% […]
Figure S16: ITC measurements of divalent fluorescent ligand 17 with LecA performed in TBS/Ca2+ buffer with […]
50 µM LecA 50 µM LecA 50 µM LecA
For orientation: ITC needs no label: the signal is the heat of the interaction.

Experiment [2] deals with T1, LecA. Description: Surface plasmon resonance, LecA binding. How it is done: as §1, with “S14).[58]−[60] […]” for “S14).[58]−[60]”
Surface plasmon resonance experiments were performed on a BIACORE X100 instrument (GE Healthcare) at 25 °C as described by Zahorska et. al..2 Averages and standard deviations were calculated from three independent experiments. […]
Stability and LecA binding and inhibition of divalent LecA ligands
100 Expe rime ntal data 1:1 fi t 120 Expe rime ntal data 1:1 fi t
100 Expe rime ntal dataSame well1:1 fi t 80 Expe rime ntal data 1:1 fi t
-20 Time [s] -20 Times [s]
100 Expe rime ntal data 1:1 fi t 80 Expe rime ntal data 1:1 fi t mode l
-20 Time [s] -20 Time [s]
Figure S7: SPR of divalent LecA acylhydrazone ligand S36 and divalent fluorescent ligand S31. Sensorgrams obtained from SPR single-cycle kinetics experiments. Five different concentrations of each compound (0, 10, 50, 100, 200 nM) were sequentially injected to obtain the experimental sensorgrams (orange lines), which were then fitted by a 1:1 model (blue lines) on BIACORE evaluation software.
(also on this page, place not known: 561 and ZAA-116 ZAA-112 100012001400 Response [RU] Experimental fit 100012001400 Response [RU] Experimental fit 100012001400 Response [RU] Experimental fit Response [RU] Experimental fit Response [RU] Experimental fit model 100012001400 Response [RU] Experimental data 1:1 fit Same well) […]
0 kon koff kinetic equilibrium#
Figure S13:C Evaluation of the optimized fluorescent ligand Time (min)17 and its synthetic precursor Time (min)16 in LecA […]
binding assays. (A) Competitive binding (top) and direct binding (bottom) by fluorescence polarization. (B) Kinetic and equilibrium analysis by SPR (0.20 #values with limited reliability, equilibrium not fully reached). Data for one representative experiment are depicted in A0.00ZAA-202 and B. Averages and std. dev. from at least three independent 0.00ZAA-203 […]
30 -0.4Expe rime ntal data0 1:1 fi t 25 -0.20Expe rime ntal data 1:1 fi t […]
25 Expe rime ntal data 1:1 fi t Expe rime ntal data 1:1 fi t
15 Molar Ratio 25 Molar Ratio […]
Figure S14: SPR of divalent LecA ligand 16 and divalent fluorescent ligand 17. Sensorgrams obtained from SPR single-cycle kinetics experiments. Five different concentrations of each compound (0, 10, 50, 100, 200 nM) were sequentially injected to obtain the experimental sensorgrams (orange lines), which were then fitted by a 1:1 model (blue lines) on BIACORE evaluation software.
On the technique in general: In SPR one partner is held on a chip, and binding of the other changes the refractive index at the surface.

Setting [3] is: individual experiments, 50 µM LecA.

Several values for one entry are separate records, joined by “and”; a condition that tells them apart may be missing. Equal entries are not always repeated.

T1 sequence (Q05097 whole entry): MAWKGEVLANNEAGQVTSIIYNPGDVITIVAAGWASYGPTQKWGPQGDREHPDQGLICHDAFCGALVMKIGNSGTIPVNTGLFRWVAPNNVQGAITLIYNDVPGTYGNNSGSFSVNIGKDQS

`C#CCCN(Cc1ccc(NC(=O)CCc2ccc(O[C@@H]3O[C@H](CO)[C@H](O)[C@H](O)[C@H]3O)cc2)cc1)Cc1ccc(NC(=O)CCc2ccc(O[C@@H]3O[C@H](CO)[C@H](O)[C@H](O)[C@H]3O)cc2)cc1` [compound 16] registered a Kd on LecA [1] (Kd (ITC, average), LecA 50 µM, TBS/Ca2+ with 5% DMSO, 25 °C, average ± s.d. (16: two experiments)) of 47.2 ± 11.3 nM. At LecA [1] (Kd (ITC, single titration), individual experiments, 50 µM LecA), the Kd was 36 nM and 58.5 nM. Also, at LecA [1] (25 °C), the “-TΔS (ITC, average)” value is 11.3 ± 0.335 kcal/mol; the “N (ITC stoichiometry, average)” value is 0.47 ± 0.03; the “ΔG (ITC, average)” value is -10 ± 0.14 kcal/mol; the “ΔH (ITC, average)” value was -21.3 ± 0.19 kcal/mol. Besides, on LecA [1] (setting [3]), the “-TΔS (ITC, single titration)” value is 48,8 kJ/mol and 45,9 kJ/mol; the “N (ITC, single titration)” value was 0,45 and 0,50; the “ΔG (ITC, single titration)” value was -41,3 kJ/mol and -42,5 kJ/mol; the “ΔH (ITC, single titration)” value is -90,1 kJ/mol and -88,5 kJ/mol. In addition, on LecA [2] (equilibrium Kd (steady-state SPR), values with limited reliability, equilibrium not fully reached), the Kd was determined as 47.8 ± 44.1 nM. The Kd on LecA [2] (kinetic Kd (SPR), single-cycle kinetics, limited reliability, suboptimal fit) worked out at 9.9 ± 0.5 nM. Moreover, the koff (in general, the first-order rate constant of dissociation) on LecA [2] (read-out: koff (SPR)) worked out at 0.00359 ± 0.0013 s⁻¹. In addition, the kon – broadly, the rate constant with which the complex forms – on LecA [2] (read-out: kon (SPR)) amounted to 359000 ± 110000 M⁻¹ s⁻¹.

With `O=C(CCc1ccc(O[C@@H]2O[C@H](CO)[C@H](O)[C@H](O)[C@H]2O)cc1)Nc1ccc(CN(CCc2cn(CCOCCOCCOCCNC(=S)Nc3ccc4c(c3)C(=O)OC43c4ccc(O)cc4Oc4cc(O)ccc43)nn2)Cc2ccc(NC(=O)CCc3ccc(O[C@@H]4O[C@H](CO)[C@H](O)[C@H](O)[C@H]4O)cc3)cc2)cc1` [compound 17], on LecA [1] (25 °C), the “-TΔS (ITC, average)” value came to 10.1 ± 1.03 kcal/mol; the “N (ITC stoichiometry, average)” value amounted to 0.50 ± 0.03; the “ΔG (ITC, average)” value is -9.89 ± 0.287 kcal/mol; the “ΔH (ITC, average)” value was -20 ± 0.765 kcal/mol. Also, at LecA [1] (setting [3]), the “-TΔS (ITC, single titration)” value is 38,3 kJ/mol and 39,8 kJ/mol and 48,2 kJ/mol; the “N (ITC, single titration)” value is 0,46 and 0,52 and 0,51; the “ΔG (ITC, single titration)” value was -42,9 kJ/mol and -41,5 kJ/mol and -39,8 kJ/mol; the “ΔH (ITC, single titration)” value is -81,2 kJ/mol and -81,3 kJ/mol and -88,1 kJ/mol. Besides, on LecA [1] (read-out: Kd (ITC, average), LecA 50 µM, TBS/Ca2+ with 5% DMSO, 25 °C, average ± s.d. (16: two experiments)), the Kd stood at 64.1 ± 31.1 nM. Besides, at LecA [1] (read-out: Kd (ITC, single titration), individual experiments, 50 µM LecA), the Kd was 31.3 nM and 55.3 nM and 106 nM. The Kd on LecA [2] (read-out: equilibrium Kd (steady-state SPR), values with limited reliability, equilibrium not fully reached) was determined as 79.3 ± 24.9 nM. The Kd on LecA [2] (read-out: kinetic Kd (SPR), single-cycle kinetics, limited reliability, suboptimal fit) was 19.3 ± 10.5 nM.
